Measurements reported in article PMC6934184, “Selective DNA-PKcs inhibition extends the therapeutic index of localized radiotherapy and chemotherapy” (The Journal of Clinical Investigation, 2019).

Target: T1, AKT3 (PKB gamma) (Homo sapiens, UniProt Q9Y243)
T1 construct: purchased Thermo Fisher Scientific (Life Technologies) SelectScreen
Test: SelectScreen Z'LYTE
Format: biochemical
Procedure, shortened: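 Percent values come from Thermo SelectScreen profiling of NU5455, combining activity and binding assays. CSF1R was run in Z'LYTE format at Km app ATP, and CAMK1 in Adapta format with ATP listed at 10.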

T1 sequence (Q9Y243 whole entry): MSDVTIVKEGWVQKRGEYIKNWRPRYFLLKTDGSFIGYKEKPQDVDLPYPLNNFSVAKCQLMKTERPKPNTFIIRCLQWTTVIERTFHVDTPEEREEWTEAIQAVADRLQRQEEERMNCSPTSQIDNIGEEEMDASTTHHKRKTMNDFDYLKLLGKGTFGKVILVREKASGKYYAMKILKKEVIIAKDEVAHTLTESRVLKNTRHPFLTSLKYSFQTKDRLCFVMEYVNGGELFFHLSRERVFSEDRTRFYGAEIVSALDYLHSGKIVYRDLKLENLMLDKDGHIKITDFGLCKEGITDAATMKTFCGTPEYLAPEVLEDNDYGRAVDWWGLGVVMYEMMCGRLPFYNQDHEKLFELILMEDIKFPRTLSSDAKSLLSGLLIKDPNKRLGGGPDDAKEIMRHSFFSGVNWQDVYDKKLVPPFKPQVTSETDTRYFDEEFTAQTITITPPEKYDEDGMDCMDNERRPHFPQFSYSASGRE

## CN(C(=O)CN1CCOCC1)c1ccc2sc3c(-c4cccc5c(=O)cc(N6CC7CCC(C6)O7)oc45)cccc3c2c1 [NU5455]
  inhibition at 1 µM: -0.5%
